Assay results taken from ChEMBL document CHEMBL1140714, “In search of novel agents for therapy of tropical diseases and human immunodeficiency virus” (J Med Chem, 2008).
Activity calls are given as the source filed them. The calls are words filed in the database; no cut-off is given here.

Columns and labels:
[1] = Cytotoxicity against mouse J774.1 cells after 48 hrs; format: cell-based; conditions: read-out: ED50
[2] = test system: Plasmodium falciparum; experiment: Antiplasmodial activity against chloroquine-sensitive Plasmodium falciparum; format: functional, organism-based
[3] = test system: Staphylococcus aureus; experiment: Antibacterial activity against Staphylococcus aureus assessed as inhibition of biofilm formation; format: functional, organism-based
[4] = test system: Leishmania major; experiment: Antileishmanial activity against Leishmania major MHOM/IL/81/FE/BNI infected in BALB/c mouse; format: functional
[5] = test system: Trypanosoma brucei brucei; experiment: Antitrypanosomal activity against Trypanosoma brucei brucei TC221; format: functional; conditions: read-out: ED50 (the source's name)

Compound | IC50 [2] | EC50 [5] | IC50 ([2]; Plasmodium falciparum, read-out: IC50) | CC50 at 48 h [1] | Activity [3] | ED50 [4] | Activity [2]
NCCCC(N)(C(=O)O)C(F)F (centres undefined) [EFLORNITHINE] | – | 22.9 µM | – | – | – | – | –
CC[C@@H]1CC2(C[C@H](CC)N1)C(=O)N(Cc1ccccc1)C(=O)N2c1ccccc1 (some centres undefined) | Not Active | 20.3 µM | – | – | inactive | – | –
CCCC[C@@H]1CC2(C[C@H](CCCC)N1)C(=O)NC(=O)N2c1ccccc1 (some centres undefined) | Not Active | 24.4 µM | – | – | inactive | >100 µM | –
COC(=O)C1C(=O)C(C(=O)OC)[C@H](c2cccc([N+](=O)[O-])c2)N(Cc2ccc(Cl)cc2)[C@@H]1c1cccc([N+](=O)[O-])c1 (some centres undefined) | Not Active | – | – | 46.6 µM | inactive | >100 µM | –
COC(=O)C1=C(O)C[C@H](c2ccccn2)N(Cc2ccc(C)cc2)[C@@H]1c1ccccn1 | – | 0.47 µM | – | 34.9 µM | inactive | 83.83 µM | –
ON=C1CCN(CCCc2ccccc2)CC1 | – | – | 26 µM | – | inactive | – | –
N=C(N)c1ccc(OCCCCCOc2ccc(C(=N)N)cc2)cc1 [PENTAMIDINE ISETHIONATE] | – | 0.0027 µM | – | – | – | – | –
COC(=O)C1C(=O)C(C(=O)OC)[C@H](c2ccccn2)N(CCCCCCCC(=O)O)[C@@H]1c1ccccn1 (some centres undefined) | – | – | – | 33.8 µM | – | 50.34 µM | inactive
O/N=C/C1CCN(CCCc2ccccc2)CC1 | – | > 100 µM | – | > 100 µM | inactive | >100 µM | –
COC(=O)C1C(=O)C(C(=O)OC)[C@H](c2cccc([N+](=O)[O-])c2)N(Cc2ccccc2)[C@@H]1c1cccc([N+](=O)[O-])c1 (some centres undefined) | Not Active | – | – | > 100 µM | inactive | >100 µM | –
COC(=O)C1C(=O)C(C(=O)OC)[C@H](c2cccc([N+](=O)[O-])c2)N(Cc2ccc(OC)cc2)[C@@H]1c1cccc([N+](=O)[O-])c1 (some centres undefined) | Not Active | – | – | > 100 µM | inactive | >100 µM | –
COC(=O)C1C(=O)C(C(=O)OC)[C@H](c2cccc([N+](=O)[O-])c2)N(Cc2ccc(C)cc2)[C@@H]1c1cccc([N+](=O)[O-])c1 (some centres undefined) | Not Active | – | – | 49.8 µM | inactive | >100 µM | –

Now from value to molecule, other results behind:

IC50 [2] | EC50 [5] | IC50 ([2]; Plasmodium falciparum, read-out: IC50) | Compound | CC50 at 48 h [1] | Activity [3] | ED50 [4] | Activity [2]
Not Active | – | – | C=CCN1[C@H](c2ccccn2)C(C(=O)OC)C(=O)C(C(=O)OC)[C@@H]1c1ccccn1 (some centres undefined) | > 100 µM | inactive | >100 µM | –
Not Active | – | – | C=CCN1[C@H](c2ccccc2)C(C(=O)OC)C(=O)C(C(=O)OC)[C@@H]1c1ccccc1 (some centres undefined) | > 100 µM | inactive | – | –
Not Active | – | – | COC(=O)C1C(=O)C(C(=O)OC)[C@H](c2ccccn2)N(CCOCCO)[C@@H]1c1ccccn1 (some centres undefined) | 38.5 µM | inactive | 65.04 µM | –
– | > 100 µM | – | COC(=O)C1=C(O)C[C@H](c2ccccn2)N(Cc2cccc(OC)c2)[C@@H]1c1ccccn1 | > 100 µM | inactive | >100 µM | –
Not Active | – | – | COC(=O)C1C(=O)C(C(=O)OC)[C@H](c2ccccn2)N(CCO)[C@@H]1c1ccccn1 (some centres undefined) | 31.2 µM | inactive | >100 µM | –
Not Active | – | – | COC(=O)C1=C(O)C[C@@H](c2ccccn2)N(Cc2ccccc2)[C@H]1c1ccccn1 | 33.2 µM | inactive | 25.97 µM | –
Not Active | – | – | COC(=O)C1C(=O)[C@H](C(=O)OC)C(c2ccccn2)N[C@@H]1c1ccccn1 (some centres undefined) | > 100 µM | inactive | >100 µM | –
– | 0.43 µM | – | COC(=O)C1=C(O)C[C@H](c2ccccn2)N(Cc2ccc(OC)cc2)[C@@H]1c1ccccn1 | 29.9 µM | inactive | 30 µM | –
